{"source": "patent US20220170930A1", "about": "“METHOD FOR SCREENING COMPOUND FOR TREATING OR PREVENTING POLYQ-RELATED NEURODEGENERATIVE DISEASES” (FUDAN UNIVERSITY, priority 2019, published 2022)", "key": {"[1]": {"target": "T1, full-length mHTT (flHTT-Q73) (Homo sapiens, UniProt P42858, INS38QQQQQQQQQQQQQQQQQQQQQQQQQQQQQQQQQQQQQQQQQQQQQQQQQQQQ)", "T1 construct": "LC3B, full-length mHTT (flHTT-Q73) and full-length HTT-Q23 (flHTT-Q23); protein A (N, cleaved yes); made in house; host or cells: human embryonic kidney E293 cells", "T1 sequence (P42858 with tags, fused parts or gaps with the stated changes)": "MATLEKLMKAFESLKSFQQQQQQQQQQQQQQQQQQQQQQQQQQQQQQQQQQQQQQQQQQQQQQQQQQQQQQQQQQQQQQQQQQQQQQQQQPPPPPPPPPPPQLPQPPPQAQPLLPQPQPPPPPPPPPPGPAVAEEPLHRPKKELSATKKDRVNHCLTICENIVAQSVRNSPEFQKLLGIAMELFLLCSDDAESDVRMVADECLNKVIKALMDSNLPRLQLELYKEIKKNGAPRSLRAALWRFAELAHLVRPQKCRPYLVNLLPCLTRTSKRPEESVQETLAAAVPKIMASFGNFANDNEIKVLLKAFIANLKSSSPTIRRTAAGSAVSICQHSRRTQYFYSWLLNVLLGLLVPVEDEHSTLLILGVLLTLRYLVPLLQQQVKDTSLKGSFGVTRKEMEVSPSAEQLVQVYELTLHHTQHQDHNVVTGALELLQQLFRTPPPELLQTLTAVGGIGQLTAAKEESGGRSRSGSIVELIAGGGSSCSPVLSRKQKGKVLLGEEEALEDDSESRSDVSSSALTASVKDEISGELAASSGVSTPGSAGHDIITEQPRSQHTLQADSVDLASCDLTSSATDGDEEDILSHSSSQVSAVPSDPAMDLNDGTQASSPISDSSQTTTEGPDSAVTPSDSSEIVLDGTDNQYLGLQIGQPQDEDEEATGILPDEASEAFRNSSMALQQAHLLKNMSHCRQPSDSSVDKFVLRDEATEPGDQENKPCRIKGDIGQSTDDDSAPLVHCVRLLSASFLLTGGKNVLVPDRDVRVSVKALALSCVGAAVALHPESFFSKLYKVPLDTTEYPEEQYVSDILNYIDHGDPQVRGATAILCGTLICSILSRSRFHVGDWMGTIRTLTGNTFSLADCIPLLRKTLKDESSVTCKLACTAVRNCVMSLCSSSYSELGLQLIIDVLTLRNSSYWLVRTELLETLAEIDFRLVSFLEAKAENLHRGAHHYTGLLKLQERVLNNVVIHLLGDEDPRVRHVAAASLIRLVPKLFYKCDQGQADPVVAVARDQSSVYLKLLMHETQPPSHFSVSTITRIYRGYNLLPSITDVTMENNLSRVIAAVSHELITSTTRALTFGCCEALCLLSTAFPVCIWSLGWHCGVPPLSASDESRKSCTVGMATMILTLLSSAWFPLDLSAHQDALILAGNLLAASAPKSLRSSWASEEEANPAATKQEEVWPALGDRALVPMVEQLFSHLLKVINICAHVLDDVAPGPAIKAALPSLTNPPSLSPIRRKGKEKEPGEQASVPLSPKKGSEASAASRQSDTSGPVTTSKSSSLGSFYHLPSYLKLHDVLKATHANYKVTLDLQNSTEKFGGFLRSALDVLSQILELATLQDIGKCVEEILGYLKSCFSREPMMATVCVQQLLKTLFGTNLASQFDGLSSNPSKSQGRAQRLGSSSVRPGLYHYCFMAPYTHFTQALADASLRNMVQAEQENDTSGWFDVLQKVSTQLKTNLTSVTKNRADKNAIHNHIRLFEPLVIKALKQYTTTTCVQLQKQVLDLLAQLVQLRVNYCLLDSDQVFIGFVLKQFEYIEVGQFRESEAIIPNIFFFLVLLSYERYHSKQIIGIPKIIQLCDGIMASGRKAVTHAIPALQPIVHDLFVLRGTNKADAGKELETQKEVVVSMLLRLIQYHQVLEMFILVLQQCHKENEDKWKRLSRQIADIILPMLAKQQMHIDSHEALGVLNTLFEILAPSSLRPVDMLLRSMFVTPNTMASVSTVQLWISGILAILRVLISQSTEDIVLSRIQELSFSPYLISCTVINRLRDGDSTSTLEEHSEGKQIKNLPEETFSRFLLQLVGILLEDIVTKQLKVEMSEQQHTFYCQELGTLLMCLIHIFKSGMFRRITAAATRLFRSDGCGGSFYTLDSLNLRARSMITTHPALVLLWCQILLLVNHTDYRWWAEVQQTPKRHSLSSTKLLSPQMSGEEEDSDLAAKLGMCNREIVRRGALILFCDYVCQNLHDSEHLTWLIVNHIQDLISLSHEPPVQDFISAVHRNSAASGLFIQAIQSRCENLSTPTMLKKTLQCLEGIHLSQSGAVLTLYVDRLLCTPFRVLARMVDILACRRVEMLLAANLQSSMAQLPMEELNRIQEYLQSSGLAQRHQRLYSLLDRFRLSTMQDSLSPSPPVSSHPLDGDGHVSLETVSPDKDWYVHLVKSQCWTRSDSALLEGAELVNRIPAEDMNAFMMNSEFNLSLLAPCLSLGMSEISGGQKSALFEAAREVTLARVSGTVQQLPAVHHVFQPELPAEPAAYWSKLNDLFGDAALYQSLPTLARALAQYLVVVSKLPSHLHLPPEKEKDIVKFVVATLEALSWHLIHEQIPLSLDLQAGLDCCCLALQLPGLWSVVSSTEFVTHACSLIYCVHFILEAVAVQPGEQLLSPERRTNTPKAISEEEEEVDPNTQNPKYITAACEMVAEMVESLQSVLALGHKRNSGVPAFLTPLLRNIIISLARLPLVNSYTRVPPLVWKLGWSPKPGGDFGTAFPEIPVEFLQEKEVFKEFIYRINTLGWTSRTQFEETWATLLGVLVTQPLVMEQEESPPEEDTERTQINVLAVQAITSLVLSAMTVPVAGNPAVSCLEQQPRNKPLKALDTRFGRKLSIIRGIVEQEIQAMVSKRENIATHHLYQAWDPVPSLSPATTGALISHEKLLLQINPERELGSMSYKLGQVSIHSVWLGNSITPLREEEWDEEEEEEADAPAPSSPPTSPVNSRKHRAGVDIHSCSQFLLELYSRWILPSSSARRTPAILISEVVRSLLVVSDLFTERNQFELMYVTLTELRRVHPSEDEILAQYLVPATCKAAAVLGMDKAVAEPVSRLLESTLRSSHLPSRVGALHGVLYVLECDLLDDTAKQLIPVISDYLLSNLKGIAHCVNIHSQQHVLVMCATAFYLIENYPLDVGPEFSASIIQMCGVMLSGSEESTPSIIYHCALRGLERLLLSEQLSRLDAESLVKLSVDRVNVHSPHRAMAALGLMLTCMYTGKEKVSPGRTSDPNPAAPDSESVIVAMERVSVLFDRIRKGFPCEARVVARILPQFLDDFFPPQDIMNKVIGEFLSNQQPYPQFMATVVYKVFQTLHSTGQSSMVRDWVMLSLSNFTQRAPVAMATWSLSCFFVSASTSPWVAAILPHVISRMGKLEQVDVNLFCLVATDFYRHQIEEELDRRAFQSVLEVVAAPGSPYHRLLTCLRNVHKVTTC", "assay": "OI-RD affinity reaction parameters with flHTT-Q73", "type": "binding", "conditions": "OI-RD, flHTT-Q73", "source_text": "Each compound was printed in triplicates on the microarray. 01-RD was used to measure the affinity reaction parameters of the compound with LC3B, full-length mHTT (flHTT-Q73) and full-length HTT-Q23 (flHTT-Q23)."}, "[2]": {"target": "T2, flHTT-Q73 (Homo sapiens, UniProt P42858, INS38QQQQQQQQQQQQQQQQQQQQQQQQQQQQQQQQQQQQQQQQQQQQQQQQQQQQ)", "T2 construct": "LC3B, full-length mHTT (flHTT-Q73) and full-length HTT-Q23 (flHTT-Q23); protein A (N, cleaved yes); made in house; host or cells: human embryonic kidney E293 cells", "T2 sequence (P42858 with tags, fused parts or gaps with the stated changes)": "as the sequence (P42858 with tags, fused parts or gaps with the stated changes) above", "assay": "MST affinity with flHTT-Q73", "type": "binding", "conditions": "MST, flHTT-Q73, protein 500 nM; read-out: Kd"}, "[3]": {"target": "T3, MBP-ATXN3-Q28 (Homo sapiens, UniProt P54252, INS305QQQQQQQQQQQQQQQQQQ)", "T3 construct": "His8 with TEV protease cleavage site; made in house; host or cells: Escherichia coli Rosetta(DE3)pLsyS", "T3 sequence (P54252 with tags, fused parts or gaps isoform P54252-4 with the stated changes)": "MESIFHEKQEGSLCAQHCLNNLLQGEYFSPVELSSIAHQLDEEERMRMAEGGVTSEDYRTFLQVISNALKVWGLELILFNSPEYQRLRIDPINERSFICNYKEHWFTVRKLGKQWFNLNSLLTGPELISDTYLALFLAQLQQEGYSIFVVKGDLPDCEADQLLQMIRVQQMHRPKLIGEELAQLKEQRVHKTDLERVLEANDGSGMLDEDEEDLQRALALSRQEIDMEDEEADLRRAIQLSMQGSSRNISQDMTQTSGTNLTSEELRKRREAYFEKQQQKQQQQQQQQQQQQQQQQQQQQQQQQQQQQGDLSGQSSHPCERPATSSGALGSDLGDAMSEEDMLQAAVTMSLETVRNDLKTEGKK", "assay": "MST affinity with MBP-ATXN3-Q28", "type": "binding", "method": "Protein concentration was 500 nM."}, "[4]": {"target": "T4, mHTT (Homo sapiens, UniProt P42858, INS38QQQQQQQQQQQQQQQQQQQQQQQQQQ)", "T4 construct": "endogenous in cells; host or cells: HD patient iPSC-derived neurons (Q47)", "assay": "HTRF mHTT level in HD patient iPSC-derived neurons", "type": "cell-based", "conditions": "iPSC-derived neurons (Q47)"}, "[5]": {"target": "T5, HTTexon1-Q72-MBP (Homo sapiens, UniProt P42858, INS38QQQQQQQQQQQQQQQQQQQQQQQQQQQQQQQQQQQQQQQQQQQQQQQQQQQ)", "T5 construct": "made in house; host or cells: mammalian expression vector pTT5SH8Q2", "T5 sequence (P42858 with tags, fused parts or gaps, stated change not applied)": "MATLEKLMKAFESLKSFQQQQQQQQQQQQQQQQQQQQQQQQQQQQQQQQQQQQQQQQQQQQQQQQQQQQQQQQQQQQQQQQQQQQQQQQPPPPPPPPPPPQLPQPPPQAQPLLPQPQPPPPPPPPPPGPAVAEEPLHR", "assay": "OI-RD affinity screening and affinity reaction parameters with HTTexon1-Q72", "type": "binding", "method": "Each compound was printed in duplicate on the microarray. The compound not fixed on the surface of the chip was washed away. The chip was sealed and cleaned. 01-RD microscope was applied to scan the images. […] The chips are cleaned and scanned.\n(§1) The difference images of the above steps (1), (2), (3) (the image after incubation minus the image before incubation) was analyzed respectively.\n(§2) Each compound was printed in triplicates on the microarray. 01-RD was used to measure the affinity reaction parameters of compounds with HTTexon1-Q72 and HTTexon1-Q25."}, "[6]": {"system": "polyQ-GFP (Q72-GFP, Q25-GFP)", "assay": "polyQ-GFP level in HEK293T cells by Incucyte fluorescence counting", "type": "cell-based", "conditions": "Q72-GFP vs Q25-GFP expressing HEK293T cells, 100 nM compound 1, 100 nM compound 3 or 50 nM compound 4, 2 days", "source_text": "(1) PolyQ-GFP cDNA sequence (expressing Met-polyQ-GFP, wherein polyQ was Q72 or Q25) was synthesized de novo and subcloned into pcDNA vector. It was transfected into HEK293T cells (ATCC, CRL-3216) through forward transfection to obtain Q72-GFP expressing cells and Q25-GFP expressing cells, respectively. And the same method was used to obtain cells expressing Q53-GFP, cells expressing Q46-GFP, and cells expressing Q38-GFP.\nThe Q72-GFP expressing cells and Q25-GFP expressing cells obtained in step (1) of 10.1 were used. […] Then the level of polyQ-GFP was measured by Incucyte fluorescence counting (FIG. 25)."}, "[7]": {"system": "SQSTM1/p62", "assay": "SQSTM1/p62 level in mouse cortices after ip injection", "type": "in vivo", "conditions": "HD mice", "method": "Using a method similar to 6.2, Hdh^Q140/Q7 mice were administered with injections. A method similar to 7.1 was used to detect the effects of ip-injection of compounds on other known autophagy selective substrate proteins (SQSTM1/p62) in the cortical tissue of Hdh^Q140/Q7 mice."}, "[8]": {"target": "T6, HTTexon1-Q25-MBP (Homo sapiens, UniProt P42858, DUP35-38)", "T6 construct": "made in house; host or cells: mammalian expression vector pTT5SH8Q2", "T6 sequence (P42858 with tags, fused parts or gaps DUP35-38)": "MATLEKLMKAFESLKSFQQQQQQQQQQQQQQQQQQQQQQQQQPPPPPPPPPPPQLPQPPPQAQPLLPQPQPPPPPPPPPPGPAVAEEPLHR", "assay": "OI-RD affinity with HTTexon1-Q25", "type": "binding", "method": "OI-RD images before and after incubation with the target protein was obtained following the method in (1).\nas §1, §2"}, "[9]": {"system": "mHTT", "assay": "Intracerebroventricular injection, mHTT and wtHTT in cortices of HD mice", "type": "in vivo, mouse", "method": "Experimental animals: Hdh^Q140/Q7 mice (3 months old), 4 in each group.\nEach test includes three repetitions for each sample, and the mean values was calculated (FIG. 16)."}, "[10]": {"system": "GFP", "assay": "OI-RD affinity screening with GFP", "type": "binding", "conditions": "OI-RD difference images", "method": "(§3) To identify compound(s) that can selectively bind to proteins containing expanded polyglutamine, screening was conducted using a method similar to 1.1, except for that the target protein HTTexon1-Q72-MBP in step (1) of 1.1 was replaced with the polyQ-GFP protein prepared in 10.1, and the target protein HTTexon1-Q25-MBP in step (2) of 1.1 was replaced with GFP."}, "[11]": {"target": "T7, binding between HTTexon1-Q25-MBP and LC3B (Homo sapiens, UniProt Q9GZQ8)", "T7 construct": "His8 (N, cleaved yes); GST (from pGEX-6P1) (N, cleaved yes); made in house; LC3B: E. coli BL21(DE3)pLsyS", "assay": "In vitro pull-down HTTexon1-Q25-MBP and LC3B", "type": "biochemical", "conditions": "1 μM compound 1 or 100 nM compound 4", "method": "Incubation was conducted. Then the unbound proteins were removed.\n(3) The resin-bound proteins were eluted and analyzed by SDS-PAGE and Western-blots with anti-LC3 antibody (FIG. 22a)."}, "[12]": {"target": "T8, mutant ATXN3 protein (ATXN3-Q74) (Homo sapiens, UniProt P54252, G306R/INS305QQQQQQQQQQQQQQQQQQQQQQQQQQQQQQQQQQQQQQQQQQQQQQQQQQQQQQQQQQQQQQQQ/V212M)", "T8 construct": "endogenous in cells; host or cells: SCA3 patient fibroblasts (Q74)", "T8 sequence (P54252 with tags, fused parts or gaps isoform P54252-1 with the stated changes)": "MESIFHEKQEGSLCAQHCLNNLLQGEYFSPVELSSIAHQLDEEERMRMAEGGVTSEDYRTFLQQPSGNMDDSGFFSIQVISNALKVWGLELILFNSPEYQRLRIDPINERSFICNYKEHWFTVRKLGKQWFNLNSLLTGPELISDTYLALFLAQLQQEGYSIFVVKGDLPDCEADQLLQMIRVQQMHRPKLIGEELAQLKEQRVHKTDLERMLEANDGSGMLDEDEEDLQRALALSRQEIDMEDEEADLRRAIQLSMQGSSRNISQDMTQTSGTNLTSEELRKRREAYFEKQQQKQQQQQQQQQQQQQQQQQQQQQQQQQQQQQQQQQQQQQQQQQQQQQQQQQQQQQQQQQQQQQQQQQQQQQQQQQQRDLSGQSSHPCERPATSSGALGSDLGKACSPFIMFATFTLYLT", "assay": "Western-blot mutant ATXN3 level in SCA3 patient fibroblasts", "type": "cell-based", "conditions": "100 nM (compound 4: 50 nM), 2 days", "method": "Then the levels of mutant ATXN3 protein (ATXN3-Q74, SEQ ID NO: 2) and wild-type ATXN3 protein (ATXN3-Q27, SEQ ID NO: 7) were determined by Western-blots (FIG. 26). […] Therefore, the compound of the present invention can be used to treat SCA3."}, "[13]": {"system": "proteins with expanded polyglutamine (polyQ-GFP)", "assay": "OI-RD affinity screening with polyQ-GFP proteins", "type": "binding", "conditions": "OI-RD difference images", "method": "as §3"}}, "data": [{"smiles": "O=C1Nc2ccc(I)cc2/C1=C/c1cc(Br)c(O)c(Br)c1", "note": "[compound 1, GW5074]", "values": [{"measurement": "Koff", "setting": "[1]", "result": 0.000133, "unit": "s⁻¹"}, {"measurement": "Kon", "setting": "[1]", "result": "5.43e-05", "unit": "min/nM"}, {"measurement": "Kd", "setting": "[1]; read-out: Kd", "result": 14.7, "unit": "nM"}, {"measurement": "Kd", "setting": "[2]", "result": 3460, "unit": "nM"}, {"measurement": "binding affinity with normal ATXN3 protein (MBP-ATXN3-Q28)", "setting": "[3]", "result": "no binding affinity"}, {"measurement": "mHTT levels", "setting": "[4]; 2B7/MW1", "result": "Decreased mHTT levels were observed"}, {"measurement": "mHTT levels", "setting": "[4]; presence of the autophagy inhibitor NH4Cl", "result": "this effect was not observed"}, {"measurement": "binding to HTTexon1-Q72", "setting": "[5]; OI-RD difference images", "result": "can bind"}, {"measurement": "Koff", "setting": "[5]; OI-RD, HTTexon1-Q72", "result": 0.000238, "unit": "s⁻¹"}, {"measurement": "Kon", "setting": "[5]; OI-RD, HTTexon1-Q72", "result": "9.07e-05", "unit": "min/nM"}, {"measurement": "Kd", "setting": "[5]; OI-RD, HTTexon1-Q72, read-out: Kd", "result": 158, "unit": "nM"}, {"measurement": "level of proteins containing expanded polyglutamine in cells (polyQ-GFP)", "setting": "[6]", "result": "can selectively reduce the level"}, {"measurement": "level of SQSTM1/p62 in the cortices", "setting": "[7]", "result": "did not change"}, {"measurement": "binding to HTTexon1-Q25", "setting": "[8]", "result": "do not bind"}, {"measurement": "mHTT selectivity relative to wtHTT", "setting": "[9]; Hdh^Q140/Q7 mice, icv, 10 days", "result": "showed mHTT selectivity relative to wtHTT"}, {"measurement": "mHTT level in cortices", "setting": "[9]; mouse, in vivo", "result": "significantly reduced mHTT level"}, {"measurement": "binding to GFP", "setting": "[10]", "result": "did not bind"}, {"measurement": "binding between HTTexon1-Q25-MBP and LC3B", "setting": "[11]", "result": "but not between HTTexon1-Q25-MBP and LC3B"}, {"measurement": "mutant ATXN3 protein level", "setting": "[12]", "result": "A decrease in mutant ATXN3 protein level was observed"}, {"measurement": "binding affinity to proteins with 38 or more glutamine repeats", "setting": "[13]", "result": "showed certain binding affinity"}]}]}
